Laboratory results from patent publication US4762848A, “1,3-thiazoles and their use as immunomodulators” (Hoechst Aktiengesellschaft, priority 1985, dated 1988).

Tests used:
[1] = tested on: mouse peritoneal macrophages; experiment: Release of lysosomal hydrolase enzymes from peritoneal macrophages of treated mice; format: in vivo, NMRI mice; settings: for N-Ac-Glu % release: N-acetyl-β-D-glucosaminidase; for β-Gal % release: β-galactosidase; for β-Glu % release: β-glucuronidase
Description: (§1) This entailed investigation of the effect of the test substance obtained as in exemplary embodiment 7 on the stimulation of peritoneal macrophages in 6-8 week old NMRI mice. Female mice received the test substance in parenteral or oral doses of 25 mg/kg, 50 mg/kg, 100 mg/kg and 200 mg/kg. Buffered saline solution was administered to a control group. The mice were sacrificed three days after the injections, and the peritoneal macrophages of the animals were examined for their state of activation. The secretion of the lysosomal enzymes (β-galactosidase, β-glucuronidase and N-acetyl-β-D-glucosaminidase) was determined as one measure of macrophage activation. […] The level of oxidative metabolism in macrophages is taken as another measure of their state of activation. This activity is measured with the assistance of a biolumate by determination of the chemiluminescence.
(§2) For this purpose, either 3×10^6 macrophages were cultured with 1 ml of TC 199 culture medium in Petri dishes of diameter 30 mm or 10^6 macrophages were cultured with 100 μl of medium in round-bottomed polyethylene tubes (for determination of the chemiluminescence), with 5% CO2 and at 37° C.
(§3) After incubation for one hour, the cultures were washed to remove floating cells. The chemiluminescence (tube culture) was then determined directly, whereas the Petri dishes were incubated for a further 24 hours at 37° C. and then the enzyme and pinocytosis activities in the cultures were determined.
It can be seen from Table 3 that macrophages from control mice release only small amounts of lysosomal enzymes (β-glucuronidase, β-galactosidase and N-acetyl-β-D-glucosaminidase) into the culture supernatant. […] It is evident that the test substance has a stimulant action on macrophage activity and contributes to an increase in enzyme release.

Candida albicans = experiment: Therapeutic treatment of chronic Candida albicans infection; format: in vivo, female Balb/c mice infected with Candida albicans; settings: for Urine infected with C. albicans d19 / Urine infected with C. albicans d24 / Kidneys infected with C. albicans / Necrotic kidneys: days 3-15; for Urine infected with C. albicans d19: day 19; for Urine infected with C. albicans d24: day 24; for Kidneys infected with C. albicans / Necrotic kidneys: day 26
Description: Increase in the Resistance of Balb/c Mice to Infection with Candida albicans
(a) Therapeutic treatment
For the therapeutic treatment of chronic Candida albicans infection, female Balb/c mice (16/group) were infected intravenously with Candida albicans (2.5×10^5 cfu/mouse) (day 0). After the infection had taken place, the animals were treated intraperitoneally on 13 consecutive days (days 3-15) with the test substance obtained as in Example 7; the concentrations were 0.5, 2.0, 5.0, 10.0, 30.0 and 60.0 mg/kg. The control animals received administrations of physiological saline solution. Urine was collected from the animals on days 19 and 24, and the organism count was determined. On day 26, the animals were sacrificed, and the organism count and the necroses in the kidneys were determined.

macrophages = experiment: Stimulation of macrophage activity (exocytosis / lysosomal enzyme activity), relative to the compound from Example 7; format: in vivo, NMRI mice; settings: 100 mg/kg, 1 × i.p. day 0; relative to Example 7 = 100%
Description: as §1, §2, §3
NMRI mice were treated with the compounds according to the invention as described in experiment 2.
The macrophage function (chemiluminescence and enzyme activity) was checked as a test to determine the immunostimulation.
It can be seen from the table that in comparison with macrophages from untreated animals, the chemiluminescence reaction of these cells was also greatly stimulated by all the test substances, and their content of lysosomal enzymes was markedly raised.

SMILES: Cc1nc(SCCCC(=O)O)sc1CC(=O)O [Example 7, [2-(3-Carboxy-1-propylthio)-4-methyl-1,3-thiazol-5-yl]acetic acid]
- N-Ac-Glu % release ([1]; 25 mg/kg, 1 × i.p.): 17.2%
- N-Ac-Glu % release ([1]; 25 mg/kg, 1 × p.o.): 15.4%
- N-Ac-Glu % release ([1]; 50 mg/kg, 1 × i.p.): 26.0%
- N-Ac-Glu % release ([1]; 50 mg/kg, 1 × p.o.): 22.8%
- N-Ac-Glu % release ([1]; 100 mg/kg, 1 × i.p.): 40.8%
- N-Ac-Glu % release ([1]; 100 mg/kg, 1 × p.o.): 37.3%
- N-Ac-Glu % release ([1]; 200 mg/kg, 1 × i.p.): 51.5%
- N-Ac-Glu % release ([1]; 200 mg/kg, 1 × p.o.): 45.2%
- β-Gal % release ([1]; 25 mg/kg, 1 × i.p.): 24.1%
- β-Gal % release ([1]; 25 mg/kg, 1 × p.o.): 20.4%
- β-Gal % release ([1]; 50 mg/kg, 1 × i.p.): 33.5%
- β-Gal % release ([1]; 50 mg/kg, 1 × p.o.): 26.9%
- β-Gal % release ([1]; 100 mg/kg, 1 × i.p.): 52.9%
- β-Gal % release ([1]; 100 mg/kg, 1 × p.o.): 43.6%
- β-Gal % release ([1]; 200 mg/kg, 1 × i.p.): 65.4%
- β-Gal % release ([1]; 200 mg/kg, 1 × p.o.): 54.8%
- β-Glu % release ([1]; 25 mg/kg, 1 × i.p.): 20.0%
- β-Glu % release ([1]; 25 mg/kg, 1 × p.o.): 17.5%
- β-Glu % release ([1]; 50 mg/kg, 1 × i.p.): 30.9%
- β-Glu % release ([1]; 50 mg/kg, 1 × p.o.): 25.1%
- β-Glu % release ([1]; 100 mg/kg, 1 × i.p.): 42.8%
- β-Glu % release ([1]; 100 mg/kg, 1 × p.o.): 38.2%
- β-Glu % release ([1]; 200 mg/kg, 1 × i.p.): 58.2%
- β-Glu % release ([1]; 200 mg/kg, 1 × p.o.): 49.8%
- Urine infected with C. albicans d19 (Candida albicans; 0.5 mg/kg i.p.): 0%
- Urine infected with C. albicans d24 (Candida albicans; 0.5 mg/kg i.p.): 6%
- Kidneys infected with C. albicans (Candida albicans; 0.5 mg/kg i.p.): 27%
- Necrotic kidneys (Candida albicans; 0.5 mg/kg i.p.): 27%
- Urine infected with C. albicans d19 (Candida albicans; 2.0 mg/kg i.p.): 6%
- Urine infected with C. albicans d24 (Candida albicans; 2.0 mg/kg i.p.): 6%
- Kidneys infected with C. albicans (Candida albicans; 2.0 mg/kg i.p.): 13%
- Necrotic kidneys (Candida albicans; 2.0 mg/kg i.p.): 7%
- Urine infected with C. albicans d19 (Candida albicans; 5.0 mg/kg i.p.): 0%
- Urine infected with C. albicans d24 (Candida albicans; 5.0 mg/kg i.p.): 7%
- Kidneys infected with C. albicans (Candida albicans; 5.0 mg/kg i.p.): 27%
- Necrotic kidneys (Candida albicans; 5.0 mg/kg i.p.): 47%
- Urine infected with C. albicans d19 (Candida albicans; 10.0 mg/kg i.p.): 7%
- Urine infected with C. albicans d24 (Candida albicans; 10.0 mg/kg i.p.): 21%
- Kidneys infected with C. albicans (Candida albicans; 10.0 mg/kg i.p.): 29%
- Necrotic kidneys (Candida albicans; 10.0 mg/kg i.p.): 43%
- Urine infected with C. albicans d19 (Candida albicans; 60.0 mg/kg i.p.): 13%
- Urine infected with C. albicans d24 (Candida albicans; 60.0 mg/kg i.p.): 13%
- Kidneys infected with C. albicans (Candida albicans; 60.0 mg/kg i.p.): 38%
- Necrotic kidneys (Candida albicans; 60.0 mg/kg i.p.): 31%
- dose for optimal action in chronic Candida albicans infection (Candida albicans; therapeutic i.p. treatment, mice): 0.5 to 5.0 mg/kg
- Macrophage activity: Exocytosis, relative activity (macrophages): 100%
